# From paper PMC6615597, “Spermine in semen of male sea lamprey acts as a sex pheromone” (PLoS Biology, 2019)
# Where two headings read alike, the source gives them in different places.
# Experiments:
# [1] = test system: T1, TAAR348 (trace amine-associated receptor (TAAR)-like receptor 348); assay: TR-FRET cAMP assay in TAAR348-expressing HEK293T cells; inhibition of […] spermine response; format: cell-based, Petromyzon marinus
# T1 construct: full-length ORF (348 residues) with N-terminal Rho-tag, expressed in HEK293T
# [2] = test system: T1, TAAR348 (trace amine-associated receptor (TAAR)-like receptor 348); assay: TR-FRET cAMP assay in TAAR348-expressing HEK293T cells (agonist); format: cell-based, Petromyzon marinus
# [3] = test system: TAAR348 (trace amine-associated receptor (TAAR)-like receptor 348)
smiles,measurement,setting,value
"C1CNCCNCCNCCN1 [SP20, 1,4,7,10-tetraazacyclododecane]",IC50,[1],0.6 ± 0.1 µM
"NCCCNCCCCNCCCNC(=O)Cc1cccc2ccccc12 [SP21, 1-naphthylacetyl spermine]",EC50,[2],5 ± 1 µM
NCCCNCCCCNCCCN [spermine],EC50,[3],34 ± 1 µM
